Patent US20060223846A1, “Aza-bridged-bicyclic amino acid derivatives as alpha4 integrin antagonists” (priority 2005, published 2006)
pIC50: −log10 of the molar value.

Experiments:
[1] = target: T1, human α4β7 (Homo sapiens, UniProt P13612+P26010); experiment: α4β7-K562 Cell Adhesion Assay (α4β7 Mediated Adhesion/VCAM-1); format: cell-based; conditions: K562 cells expressing human α4β7 on recombinant hVCAM-1; read-out: α4β7 IC50
T1 construct: expressed in transfected cells
T1 sequence (P13612 34-1032): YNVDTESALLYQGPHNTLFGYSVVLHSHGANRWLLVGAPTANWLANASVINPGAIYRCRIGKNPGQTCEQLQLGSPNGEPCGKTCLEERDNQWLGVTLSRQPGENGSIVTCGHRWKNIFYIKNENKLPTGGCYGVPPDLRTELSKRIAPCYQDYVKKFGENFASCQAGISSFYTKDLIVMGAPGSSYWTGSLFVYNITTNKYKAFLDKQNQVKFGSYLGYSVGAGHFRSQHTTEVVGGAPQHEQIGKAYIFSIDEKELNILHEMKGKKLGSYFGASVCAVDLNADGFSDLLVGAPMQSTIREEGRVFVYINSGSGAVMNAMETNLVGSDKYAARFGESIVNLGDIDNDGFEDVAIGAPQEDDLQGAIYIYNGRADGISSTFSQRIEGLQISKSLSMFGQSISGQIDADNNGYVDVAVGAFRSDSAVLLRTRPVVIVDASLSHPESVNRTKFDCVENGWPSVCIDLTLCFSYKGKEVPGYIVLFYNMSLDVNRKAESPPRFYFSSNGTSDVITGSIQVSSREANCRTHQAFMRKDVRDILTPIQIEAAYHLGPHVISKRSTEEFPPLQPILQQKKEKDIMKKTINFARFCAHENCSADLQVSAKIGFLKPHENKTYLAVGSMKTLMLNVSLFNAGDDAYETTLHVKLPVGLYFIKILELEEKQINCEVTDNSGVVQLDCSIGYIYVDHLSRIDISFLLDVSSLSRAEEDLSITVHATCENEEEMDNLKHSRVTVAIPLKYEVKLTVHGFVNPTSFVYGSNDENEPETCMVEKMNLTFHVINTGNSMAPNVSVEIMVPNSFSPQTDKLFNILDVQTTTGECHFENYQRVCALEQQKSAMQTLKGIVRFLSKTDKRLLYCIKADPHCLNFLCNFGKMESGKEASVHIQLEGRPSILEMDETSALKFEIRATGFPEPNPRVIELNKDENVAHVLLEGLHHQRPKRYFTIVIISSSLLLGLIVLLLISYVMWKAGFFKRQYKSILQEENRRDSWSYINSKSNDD
T1 sequence (P26010 20-798): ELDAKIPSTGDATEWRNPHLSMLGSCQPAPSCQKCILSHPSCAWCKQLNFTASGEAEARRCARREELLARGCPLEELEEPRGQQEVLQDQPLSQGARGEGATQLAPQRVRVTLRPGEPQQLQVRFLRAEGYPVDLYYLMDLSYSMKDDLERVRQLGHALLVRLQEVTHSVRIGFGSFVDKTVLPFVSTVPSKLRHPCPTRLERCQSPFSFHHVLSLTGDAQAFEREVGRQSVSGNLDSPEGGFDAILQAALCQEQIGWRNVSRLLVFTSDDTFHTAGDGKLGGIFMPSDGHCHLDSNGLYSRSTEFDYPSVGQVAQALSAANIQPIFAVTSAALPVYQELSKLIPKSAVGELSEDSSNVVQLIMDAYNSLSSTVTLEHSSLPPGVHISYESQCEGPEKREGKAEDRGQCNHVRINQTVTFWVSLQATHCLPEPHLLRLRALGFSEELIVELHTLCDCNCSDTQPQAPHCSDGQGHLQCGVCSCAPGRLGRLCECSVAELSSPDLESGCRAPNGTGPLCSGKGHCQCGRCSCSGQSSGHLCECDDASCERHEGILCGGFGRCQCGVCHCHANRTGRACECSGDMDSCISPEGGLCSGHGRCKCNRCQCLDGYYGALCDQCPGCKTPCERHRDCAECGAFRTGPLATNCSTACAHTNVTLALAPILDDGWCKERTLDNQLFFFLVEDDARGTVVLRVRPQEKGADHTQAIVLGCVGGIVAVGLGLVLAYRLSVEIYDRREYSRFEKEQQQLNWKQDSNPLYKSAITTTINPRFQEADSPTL
Method: (§1) α4β7-K562 Cell Adhesion Assay (α4β7 Mediated Adhesion/VCAM-1) Immulon 96 well plates (Dynex) were coated with 100 μL recombinant hVCAM-1 at 4.0 μg/mL in 0.05 M NaCO3 buffer pH 9.0 overnight at 4° C. (R&D System). Plates were washed 3 times in PBS with 1% BSA and blocked for 1 h @ room temperature in this buffer. PBS was removed and compounds to be tested (50 μL) were added at 2× concentration. A stable cell line of K562 cells expressing human α4β7, (50 μL at 2×10^6/mL) labeled with 5 μM Calcein AM (Molecular Probes) for 1 h at 37° C., were added to each well and allowed to adhere for 1 h at room temperature. Plates were washed 3× in PBS+1% BSA and cells were lysed for 15 minutes in 100 μL of 1 M Tris pH 8.0 with 1% SDS. The plate was read at 485 nm excitation and 530 nm emission.

[2] = target: α4β1 (Homo sapiens, UniProt P05556+P13612); experiment: Ramos Cell Adhesion Assay (α4β1 Mediated Adhesion/VCAM-1); format: cell-based; parameters: Ramos cells, (50 μL at 2×10^6/mL) labeled with 5 μM Calcein AM; endogenous in cells; host or cells: Ramos cells; conditions: Ramos cells on recombinant hVCAM-1; read-out: α4β1 IC50
Method: as §1, with “Ramos” for “α4β7-K562”, “α4β1” for “(α4β7”, “[…]” for “96”, “Systems).” for “System).”, “Ramos cells,” for “A stable cell line of K562 cells expressing human α4β7,”

Sequence of α4β1 (P05556 21-798, one chain of several): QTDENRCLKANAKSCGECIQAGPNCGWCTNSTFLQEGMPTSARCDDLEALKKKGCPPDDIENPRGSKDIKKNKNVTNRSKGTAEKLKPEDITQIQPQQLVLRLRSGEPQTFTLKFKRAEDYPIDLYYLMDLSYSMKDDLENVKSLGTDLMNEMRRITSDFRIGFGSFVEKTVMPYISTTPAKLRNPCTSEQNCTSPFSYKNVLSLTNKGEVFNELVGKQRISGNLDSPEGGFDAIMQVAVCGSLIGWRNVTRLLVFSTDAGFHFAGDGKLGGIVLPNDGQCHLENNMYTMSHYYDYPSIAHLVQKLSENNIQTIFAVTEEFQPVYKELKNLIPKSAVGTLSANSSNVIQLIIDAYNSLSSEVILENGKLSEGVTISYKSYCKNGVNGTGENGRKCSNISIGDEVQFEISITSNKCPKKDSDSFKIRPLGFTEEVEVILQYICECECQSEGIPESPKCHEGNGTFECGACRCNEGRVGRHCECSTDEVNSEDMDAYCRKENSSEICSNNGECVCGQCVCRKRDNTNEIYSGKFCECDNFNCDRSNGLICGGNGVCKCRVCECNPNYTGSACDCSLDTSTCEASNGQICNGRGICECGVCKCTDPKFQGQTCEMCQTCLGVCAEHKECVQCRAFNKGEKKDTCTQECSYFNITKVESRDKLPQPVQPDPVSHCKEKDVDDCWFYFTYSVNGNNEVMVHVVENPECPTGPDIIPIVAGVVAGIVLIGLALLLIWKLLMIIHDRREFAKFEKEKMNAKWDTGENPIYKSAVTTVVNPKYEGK

Compound	pIC50 [1]	pIC50 [2]
O=C(Nc1ccc(CC(NC(=O)C2C3CCC(CC3)N2C(=O)CCCC2CCCCC2)C(=O)O)cc1)c1c(Cl)cncc1Cl (stereo not shown) [Cpd 37]	6.60	7.39
CC(=Cc1ccccc1)C(=O)N1C2CCC(CC2)C1C(=O)NC(Cc1ccc(NC(=O)c2c(Cl)cncc2Cl)cc1)C(=O)O (stereo not shown) [Cpd 40]	6.03	7.11
O=C(Nc1ccc(CC(NC(=O)C2C3CCC(CC3)N2C(=O)CC2CCOCC2)C(=O)O)cc1)c1c(Cl)cncc1Cl (stereo not shown) [Cpd 41]	7.52	7.96
O=C(Nc1ccc(CC(NC(=O)C2C3CCC(CC3)N2C(=O)CCN2CCCCC2)C(=O)O)cc1)c1c(Cl)cncc1Cl (stereo not shown) [Cpd 43]	7.07	8.30
O=C(Nc1ccc(CC(NC(=O)C2C3CCC(CC3)N2C(=O)Cc2ccncc2)C(=O)O)cc1)c1c(Cl)cncc1Cl (stereo not shown) [Cpd 44]	7.49	8.52
COc1ccccc1C=CC(=O)N1C2CCC(CC2)C1C(=O)NC(Cc1ccc(NC(=O)c2c(Cl)cncc2Cl)cc1)C(=O)O (stereo not shown) [Cpd 45]	7.44	8.52
O=C(Nc1ccc(CC(NC(=O)C2C3CCC(CC3)N2C(=O)C=Cc2ccc3c(c2)OCO3)C(=O)O)cc1)c1c(Cl)cncc1Cl (stereo not shown) [Cpd 46]	6.32	< 5.30
O=C(Nc1ccc(CC(NC(=O)C2C3CCC(CC3)N2C(=O)CCc2ccc(C(F)(F)F)cc2)C(=O)O)cc1)c1c(Cl)cncc1Cl (stereo not shown) [Cpd 50]	7.12	8.22
O=C(Nc1ccc(CC(NC(=O)C2C3CCC(CC3)N2C(=O)CCc2ccccc2F)C(=O)O)cc1)c1c(Cl)cncc1Cl (stereo not shown) [Cpd 52]	7.34	8.52
O=C(Nc1ccc(CC(NC(=O)C2C3CCC(CC3)N2C(=O)CCN2CCNCC2)C(=O)O)cc1)c1c(Cl)cncc1Cl (stereo not shown) [Cpd 53]	6.85	8.52
O=C(Nc1ccc(CC(NC(=O)C2C3CCC(CC3)N2C(=O)CCc2cc(C(F)(F)F)cc(C(F)(F)F)c2)C(=O)O)cc1)c1c(Cl)cncc1Cl (stereo not shown) [Cpd 55]	6.74	7.14
O=C(Nc1ccc(CC(NC(=O)C2C3CCC(CC3)N2C(=O)C#Cc2ccccc2)C(=O)O)cc1)c1c(Cl)cncc1Cl (stereo not shown) [Cpd 57]	7.57	8.05
COc1cccc(CC(=O)N2C3CCC(CC3)C2C(=O)NC(Cc2ccc(NC(=O)c3c(Cl)cncc3Cl)cc2)C(=O)O)c1 (stereo not shown) [Cpd 59]	6.59	6.30
O=C(Nc1ccc(CC(NC(=O)C2C3CCC(CC3)N2C(=O)Cc2csc3ccccc23)C(=O)O)cc1)c1c(Cl)cncc1Cl (stereo not shown) [Cpd 62]	6.25	6.53
O=C(Nc1ccc(CC(NC(=O)C2C3CCC(CC3)N2C(=O)c2ccccc2Oc2ccccc2)C(=O)O)cc1)c1c(Cl)cncc1Cl (stereo not shown) [Cpd 63]	7.18	7.26

Molecules with a higher pIC50 [1], results first:

pIC50 [1]	pIC50 [2]	Compound
7.82	8.30	CC(C)CCC(=O)N1C2CCC(CC2)C1C(=O)NC(Cc1ccc(NC(=O)c2c(Cl)cncc2Cl)cc1)C(=O)O (stereo not shown) [Cpd 38]
7.62	8.10	O=C(Nc1ccc(CC(NC(=O)C2C3CCC(CC3)N2C(=O)OCc2ccccc2)C(=O)O)cc1)c1c(Cl)cncc1Cl (stereo not shown) [Cpd 42]
8.05	9.00	COc1cccc(CCC(=O)N2C3CCC(CC3)C2C(=O)NC(Cc2ccc(NC(=O)c3c(Cl)cncc3Cl)cc2)C(=O)O)c1 (stereo not shown) [Cpd 49]
7.62	8.52	O=C(Nc1ccc(CC(NC(=O)C2C3CCC(CC3)N2C(=O)CCc2ccc(Cl)cc2)C(=O)O)cc1)c1c(Cl)cncc1Cl (stereo not shown) [Cpd 51]
7.64	8.70	CN(C)c1ccc(CC(=O)N2C3CCC(CC3)C2C(=O)NC(Cc2ccc(NC(=O)c3c(Cl)cncc3Cl)cc2)C(=O)O)cc1 (stereo not shown) [Cpd 56]
7.80	6.70	Cc1ccc(CCN2C3CCC(CC3)C2C(=O)NC(Cc2ccc(NC(=O)c3c(Cl)cncc3Cl)cc2)C(=O)O)cc1 (stereo not shown) [Cpd 58]
7.62	8.05	O=C(Nc1ccc(CC(NC(=O)C2C3CCC(CC3)N2C(=O)OCc2ccccc2)C(=O)O)cc1)c1c(Cl)cncc1Cl (stereo not shown) [Cpd 64]
8.00	8.52	O=C(Nc1ccc(CC(NC(=O)C2C3CCC(CC3)N2C(=O)CCc2cccnc2)C(=O)O)cc1)c1c(Cl)cncc1Cl (stereo not shown) [Cpd 65]
